Assay results: PMC12339163, “Combining Plant Bioactives With Antibiotics for Enhanced Antibiofilm Activity Against Uropathogenic Staphylococcus spp. and Cytotoxicity Evaluation” (Advances in Pharmacological and Pharmaceutical Sciences, 2025)
Read-outs that look alike come from different tables or passages of the source.

Columns and labels:
S. epidermidis biofilm = experiment: Time-kill kinetic assay on biofilm inhibition; assay type: cell-based, Staphylococcus epidermidis; conditions: at 24 h
Procedure: The biofilm formation inhibitory activity of NPs and ATBs was carried out according to the method previously described. A total of 100 µL of bacterial inoculum (1.5 × 10^6 CFU/mL) was used, and 100 µL of each sample was added to the microplate to achieve final concentrations ranging from 0.25 µg/mL to 128 µg/mL for ATBs and from 8 µg/mL to 1024 µg/mL for NPs. Then, the microplate was incubated at 37°C for 24 h. After incubation, the plates were gently emptied and washed three times with a phosphate buffer solution at pH 7.2. Then, the MTT solution (0.5 mg/mL) prepared in PBS was introduced into each well, and the microplate was further incubated at 37°C for 24 h. Untreated wells containing bacterial suspension and MHB supplemented with 1% glucose were considered positive controls, and wells containing only MHB+1% glucose without bacteria were used as blanks. After incubation, the MTT solution was aspirated, then 150 µL of DMSO was introduced to dissolve the formazan crystal formed by viable bacteria, and the optical density (OD) was measured at 570 nm using a microplate reader (VERSA-max). The percentage of biofilm inhibition was calculated using the formula below, and the minimal biofilm inhibitory concentration (MBIC) was recorded as the lowest concentration of NPs or ATBs that inhibited 100% of biofilm:(1) % biofilm inhibition=ODcontrol−ODblank−ODtest−ODblank/ODcontrol−ODblank×100.
The five best synergistic antibiofilm combinations were selected, and their ability to inhibit biofilm formation and eradication as a function of time was evaluated at 4-h intervals for 24 h by the microtiter plate method, as previously described. The synergistic antibiofilm combinations selected were with FICI < 0.4, named C1 to C5. C1: cefixime (5.33 µg/mL) + thymol (32 µg/mL); C2: cefazolin (1.16 µg/mL) + thymol (21.33 µg/mL); C3: amikacin (0.18 µg/mL) + curcumin (37.33 µg/mL); C4: kanamycin (0.25 µg/mL) + curcumin (14 µg/mL); and C5: amoxicillin (1.16 µg/mL) + curcumin (21.33 µg/mL). The kinetics of biofilm inhibition and eradication were performed as described above for the biofilm inhibition and eradication assay using the indicated combinations, followed by the reading of the optical densities (570 nm) at 4-h intervals over 24 h (0, 4, 8, 12, 16, and 24 h). In both cases, experiments were carried out three times in triplicate.

[1] = test system: planktonic cells of Staphylococcus spp.; experiment: Checkerboard combination assay, planktonic cells, synergistic combinations (Table 3); assay type: cell-based; conditions: mean
Procedure: The checkerboard assay, as previously described, was used for the determination of the fractional inhibitory concentration index (FICI). Briefly, 50 µL of MHB was distributed into each well of a 96-well microplate. ATBs were serially diluted along the abscissa, and NPs were serially diluted along the ordinate. Then, 100 µL of bacterial inoculum (1.5 × 10^6 CFU/mL) was added to each well and incubated at 37°C for 24 h. The final concentration ranged from 0.125 to 128 µg/mL for ATBs and 4–512 µg/mL for NPs. After incubation, a volume of 40 µL of INT solution (0.2 mg/mL) was added to each well, and the microplate was incubated at 37°C for 30 min. The wells containing bacterial inoculum and MHB were used as a positive control, while wells containing only MHB + 1% glucose were used as a negative control and used as a blank. Viable bacteria cells change the yellow dye of INT to a pink color. The MICs were considered to be the lowest NP concentrations that prevented the color change medium. Subsequently, the FICI was calculated according to the formula FICI = (MIC of the ATBs in combination/MIC of the ATBs alone) + (MIC of a natural substance in combination/MIC of the natural substance alone). FICI values were interpreted as follows: synergy when FICI ≤ 0.5; additive when 0.5 < FICI ≤ 1; indifference when 1 < FICI ≤ 4; and antagonism when FICI > 4.

[2] = C1 and its components (cefixime 5.33 µg/mL, thymol 32 µg/mL)
[3] = C2 and its components (cefazolin 1.16 µg/mL, thymol 21.33 µg/mL)

C=CC1=C(C(=O)O)N2C(=O)[C@@H](NC(=O)/C(=N\OCC(=O)O)c3csc(N)n3)[C@H]2SC1 [Cefixime, cefixime]
OD (570 nm), biofilm inhibition (S. epidermidis biofilm; [2]): 0.84

C[C@H]1c2cccc(O)c2C(=O)C2=C(O)[C@]3(O)C(=O)C(C(N)=O)=C(O)[C@@H](N(C)C)[C@@H]3[C@@H](O)[C@@H]21 [Doxycycline, doxycycline]
MIC ([1]; read-out: MIC alone, ATB): 7 µg/mL

Cc1nnc(SCC2=C(C(=O)O)N3C(=O)[C@@H](NC(=O)Cn4cnnn4)[C@H]3SC2)s1 [Cefazolin, cefazolin]
OD (570 nm), biofilm inhibition (S. epidermidis biofilm; [3]): 1.27

NCC[C@H](O)C(=O)N[C@@H]1C[C@H](N)[C@@H](O[C@H]2O[C@H](CN)[C@@H](O)[C@H](O)[C@H]2O)[C@H](O)[C@H]1O[C@H]1O[C@H](CO)[C@@H](O)[C@H](N)[C@H]1O [Amikacin, amikacin]
MIC ([1]; read-out: MIC alone, ATB): 1.16 µg/mL

Cc1ccc(C(C)C)c(O)c1 [Thymol, thymol]
MIC ([1]; 24 h, read-out: MIC alone, NPs): 427 µg/mL
OD (570 nm), biofilm inhibition (S. epidermidis biofilm; [2]): 0.67
OD (570 nm), biofilm inhibition (S. epidermidis biofilm; [3]): 0.96

O=C(O)c1cc(O)c(O)c(O)c1 [Gallic acid, 3,4,5-trihydroxybenzoic acid]
MIC ([1]; 24 h, read-out: MIC alone, NPs): 512 µg/mL

COc1cc(/C=C/C(=O)CC(=O)/C=C/c2ccc(O)c(OC)c2)ccc1O [Curcumin, curcumin]
MIC ([1]; 24 h, read-out: MIC alone, NPs): 384 µg/mL
